From ChEMBL document CHEMBL1154600, “Knowledge-based characterization of similarity relationships in the human protein-tyrosine phosphatase family for rational inhibitor design” (J Med Chem, 2009)

Legend:
[1] = target: T1, Receptor-type tyrosine-protein phosphatase C (Homo sapiens, UniProt P08575); test: Inhibition of PTPRC
T1 sequence (P08575 whole entry): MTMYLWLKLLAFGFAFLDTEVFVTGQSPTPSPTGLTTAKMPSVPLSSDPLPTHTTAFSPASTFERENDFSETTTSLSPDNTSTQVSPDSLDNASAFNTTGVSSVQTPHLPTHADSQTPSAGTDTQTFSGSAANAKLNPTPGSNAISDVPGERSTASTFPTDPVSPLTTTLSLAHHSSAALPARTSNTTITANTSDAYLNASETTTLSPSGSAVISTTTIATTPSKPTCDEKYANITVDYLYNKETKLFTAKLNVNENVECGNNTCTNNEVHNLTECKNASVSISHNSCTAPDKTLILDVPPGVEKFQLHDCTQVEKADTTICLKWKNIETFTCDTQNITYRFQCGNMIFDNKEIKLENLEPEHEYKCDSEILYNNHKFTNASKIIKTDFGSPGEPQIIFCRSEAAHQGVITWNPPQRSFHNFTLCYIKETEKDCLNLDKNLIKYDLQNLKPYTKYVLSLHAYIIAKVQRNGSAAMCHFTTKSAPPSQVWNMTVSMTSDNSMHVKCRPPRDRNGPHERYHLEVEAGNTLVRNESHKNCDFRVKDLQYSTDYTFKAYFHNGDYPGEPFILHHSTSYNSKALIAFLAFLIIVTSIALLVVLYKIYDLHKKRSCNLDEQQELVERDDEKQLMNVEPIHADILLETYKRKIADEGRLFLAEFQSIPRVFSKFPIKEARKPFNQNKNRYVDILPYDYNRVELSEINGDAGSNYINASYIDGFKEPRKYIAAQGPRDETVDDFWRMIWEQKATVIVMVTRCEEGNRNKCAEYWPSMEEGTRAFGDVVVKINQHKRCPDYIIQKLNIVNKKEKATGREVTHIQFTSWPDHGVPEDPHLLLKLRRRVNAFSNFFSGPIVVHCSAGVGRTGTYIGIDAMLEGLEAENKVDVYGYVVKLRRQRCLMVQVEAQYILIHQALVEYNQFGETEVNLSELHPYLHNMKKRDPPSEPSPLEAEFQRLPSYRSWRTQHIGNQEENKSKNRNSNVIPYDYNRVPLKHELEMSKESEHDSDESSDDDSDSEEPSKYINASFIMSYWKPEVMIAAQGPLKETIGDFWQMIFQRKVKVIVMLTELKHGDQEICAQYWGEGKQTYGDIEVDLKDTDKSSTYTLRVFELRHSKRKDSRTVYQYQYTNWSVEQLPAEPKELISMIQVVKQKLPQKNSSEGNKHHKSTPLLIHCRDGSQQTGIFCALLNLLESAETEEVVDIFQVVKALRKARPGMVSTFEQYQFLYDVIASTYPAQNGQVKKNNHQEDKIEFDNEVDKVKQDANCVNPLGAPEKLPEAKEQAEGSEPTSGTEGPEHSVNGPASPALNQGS

[2] = target: Receptor-type tyrosine-protein phosphatase beta (Homo sapiens, UniProt P23467); test: Inhibition of PTPRB
[3] = target: Tyrosine-protein phosphatase non-receptor type 6 (Homo sapiens, UniProt P29350)
[4] = target: Receptor-type tyrosine-protein phosphatase epsilon (Homo sapiens, UniProt P23469)
[5] = target: T2, Tyrosine-protein phosphatase non-receptor type 2 (Homo sapiens, UniProt P17706)
T2 sequence (P17706 whole entry): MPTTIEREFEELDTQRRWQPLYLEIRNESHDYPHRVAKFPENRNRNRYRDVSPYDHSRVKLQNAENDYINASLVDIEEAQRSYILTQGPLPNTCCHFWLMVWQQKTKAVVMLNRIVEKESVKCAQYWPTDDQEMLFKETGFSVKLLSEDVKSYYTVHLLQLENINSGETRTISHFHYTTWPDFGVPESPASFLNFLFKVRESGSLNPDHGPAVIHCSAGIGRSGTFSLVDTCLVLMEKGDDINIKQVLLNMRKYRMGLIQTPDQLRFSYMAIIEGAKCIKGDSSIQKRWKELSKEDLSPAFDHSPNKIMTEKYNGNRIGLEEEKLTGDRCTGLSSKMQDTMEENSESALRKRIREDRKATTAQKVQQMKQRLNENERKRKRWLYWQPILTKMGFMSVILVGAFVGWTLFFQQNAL

[6] = target: Receptor-type tyrosine-protein phosphatase F (Homo sapiens, UniProt P10586); test: Inhibition of PTPRF
[7] = target: Receptor-type tyrosine-protein phosphatase alpha (Homo sapiens, UniProt P18433); test: Inhibition of PTPRA
[8] = target: Tyrosine-protein phosphatase non-receptor type 2 (Homo sapiens) (UniProt P17706); test: Inhibition of PTPN2

Sequence of Tyrosine-protein phosphatase non-receptor type 6 (P29350 whole entry): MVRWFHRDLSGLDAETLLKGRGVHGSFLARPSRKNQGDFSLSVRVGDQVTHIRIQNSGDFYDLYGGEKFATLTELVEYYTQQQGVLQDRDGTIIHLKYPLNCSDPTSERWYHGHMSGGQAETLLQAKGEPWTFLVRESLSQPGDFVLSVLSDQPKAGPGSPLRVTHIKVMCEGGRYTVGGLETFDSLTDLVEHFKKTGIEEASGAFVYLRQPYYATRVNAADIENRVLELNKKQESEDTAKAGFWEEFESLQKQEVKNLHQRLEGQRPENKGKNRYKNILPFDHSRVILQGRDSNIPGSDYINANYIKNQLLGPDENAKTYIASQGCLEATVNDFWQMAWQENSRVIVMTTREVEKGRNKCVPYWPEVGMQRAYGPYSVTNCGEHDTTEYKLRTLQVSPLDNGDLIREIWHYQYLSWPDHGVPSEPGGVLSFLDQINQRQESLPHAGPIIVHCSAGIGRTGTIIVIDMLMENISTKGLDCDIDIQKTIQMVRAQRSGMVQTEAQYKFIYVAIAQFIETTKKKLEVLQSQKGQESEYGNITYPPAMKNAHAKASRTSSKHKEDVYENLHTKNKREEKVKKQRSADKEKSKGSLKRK
Sequence of Receptor-type tyrosine-protein phosphatase beta (P23467 whole entry): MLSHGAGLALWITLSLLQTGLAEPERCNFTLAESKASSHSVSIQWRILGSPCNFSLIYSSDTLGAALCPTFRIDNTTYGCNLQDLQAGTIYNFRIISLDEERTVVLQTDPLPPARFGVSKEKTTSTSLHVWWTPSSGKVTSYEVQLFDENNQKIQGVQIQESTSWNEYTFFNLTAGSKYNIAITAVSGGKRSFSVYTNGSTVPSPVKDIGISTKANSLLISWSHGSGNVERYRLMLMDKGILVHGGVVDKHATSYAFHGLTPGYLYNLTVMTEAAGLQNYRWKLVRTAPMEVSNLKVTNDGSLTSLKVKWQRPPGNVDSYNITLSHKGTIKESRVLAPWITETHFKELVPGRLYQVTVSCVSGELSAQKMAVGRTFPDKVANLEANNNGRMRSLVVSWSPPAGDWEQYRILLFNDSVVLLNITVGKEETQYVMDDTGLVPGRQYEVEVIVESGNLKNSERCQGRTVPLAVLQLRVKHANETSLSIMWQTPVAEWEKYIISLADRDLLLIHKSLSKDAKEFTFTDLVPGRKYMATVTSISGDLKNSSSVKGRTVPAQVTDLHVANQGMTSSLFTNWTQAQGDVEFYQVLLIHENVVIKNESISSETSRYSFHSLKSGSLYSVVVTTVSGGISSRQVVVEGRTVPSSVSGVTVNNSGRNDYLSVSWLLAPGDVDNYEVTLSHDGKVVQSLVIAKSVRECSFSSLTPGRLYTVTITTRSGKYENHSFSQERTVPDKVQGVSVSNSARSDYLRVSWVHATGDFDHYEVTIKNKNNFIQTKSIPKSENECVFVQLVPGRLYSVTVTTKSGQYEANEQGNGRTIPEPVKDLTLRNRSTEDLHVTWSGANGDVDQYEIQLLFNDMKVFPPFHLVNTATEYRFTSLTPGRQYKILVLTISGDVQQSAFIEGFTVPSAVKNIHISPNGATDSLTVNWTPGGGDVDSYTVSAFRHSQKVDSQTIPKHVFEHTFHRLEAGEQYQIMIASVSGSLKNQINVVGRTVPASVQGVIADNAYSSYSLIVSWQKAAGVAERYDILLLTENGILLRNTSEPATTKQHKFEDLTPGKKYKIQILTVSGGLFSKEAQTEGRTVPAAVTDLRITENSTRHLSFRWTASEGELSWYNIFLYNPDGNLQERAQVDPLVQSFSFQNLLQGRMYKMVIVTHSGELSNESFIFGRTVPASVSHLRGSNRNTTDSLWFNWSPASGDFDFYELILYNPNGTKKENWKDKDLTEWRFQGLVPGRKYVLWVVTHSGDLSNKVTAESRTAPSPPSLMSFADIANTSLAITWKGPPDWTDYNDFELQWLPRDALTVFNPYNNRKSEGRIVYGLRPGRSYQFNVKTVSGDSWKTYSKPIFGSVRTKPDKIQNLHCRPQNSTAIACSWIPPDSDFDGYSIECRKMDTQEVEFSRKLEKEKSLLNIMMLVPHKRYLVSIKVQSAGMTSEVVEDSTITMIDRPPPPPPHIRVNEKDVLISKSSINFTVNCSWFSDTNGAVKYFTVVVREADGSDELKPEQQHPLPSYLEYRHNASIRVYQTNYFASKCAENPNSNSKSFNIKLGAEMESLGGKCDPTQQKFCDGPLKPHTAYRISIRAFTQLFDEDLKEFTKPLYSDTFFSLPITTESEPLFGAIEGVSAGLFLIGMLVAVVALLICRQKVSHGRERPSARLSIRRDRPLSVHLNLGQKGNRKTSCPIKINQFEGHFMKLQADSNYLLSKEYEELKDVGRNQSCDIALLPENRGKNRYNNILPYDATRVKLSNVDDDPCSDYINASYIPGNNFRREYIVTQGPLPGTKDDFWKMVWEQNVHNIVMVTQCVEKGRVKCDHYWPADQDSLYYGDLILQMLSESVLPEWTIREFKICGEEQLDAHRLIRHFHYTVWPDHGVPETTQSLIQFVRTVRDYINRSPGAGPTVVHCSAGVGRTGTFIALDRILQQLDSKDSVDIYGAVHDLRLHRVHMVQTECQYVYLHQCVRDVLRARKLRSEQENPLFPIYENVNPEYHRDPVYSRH
Sequence of Receptor-type tyrosine-protein phosphatase epsilon (P23469 whole entry): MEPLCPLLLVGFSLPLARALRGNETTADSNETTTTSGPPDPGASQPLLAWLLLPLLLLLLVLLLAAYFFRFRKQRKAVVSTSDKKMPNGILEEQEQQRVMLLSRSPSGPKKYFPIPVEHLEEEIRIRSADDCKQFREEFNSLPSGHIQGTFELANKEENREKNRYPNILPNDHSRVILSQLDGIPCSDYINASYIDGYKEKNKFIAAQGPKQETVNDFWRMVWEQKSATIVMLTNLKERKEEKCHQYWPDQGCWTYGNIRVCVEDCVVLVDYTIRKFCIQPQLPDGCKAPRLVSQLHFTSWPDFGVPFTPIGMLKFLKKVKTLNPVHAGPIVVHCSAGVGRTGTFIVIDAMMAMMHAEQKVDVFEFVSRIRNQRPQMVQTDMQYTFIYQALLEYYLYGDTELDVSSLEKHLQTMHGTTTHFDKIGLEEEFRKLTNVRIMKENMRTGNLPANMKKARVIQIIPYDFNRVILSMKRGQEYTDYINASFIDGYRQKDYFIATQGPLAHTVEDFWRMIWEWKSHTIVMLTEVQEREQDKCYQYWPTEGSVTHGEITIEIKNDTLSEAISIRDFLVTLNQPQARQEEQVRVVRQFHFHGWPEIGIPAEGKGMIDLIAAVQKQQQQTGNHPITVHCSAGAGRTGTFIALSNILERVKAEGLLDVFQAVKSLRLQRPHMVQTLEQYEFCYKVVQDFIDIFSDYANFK
Sequence of Receptor-type tyrosine-protein phosphatase alpha (P18433 whole entry): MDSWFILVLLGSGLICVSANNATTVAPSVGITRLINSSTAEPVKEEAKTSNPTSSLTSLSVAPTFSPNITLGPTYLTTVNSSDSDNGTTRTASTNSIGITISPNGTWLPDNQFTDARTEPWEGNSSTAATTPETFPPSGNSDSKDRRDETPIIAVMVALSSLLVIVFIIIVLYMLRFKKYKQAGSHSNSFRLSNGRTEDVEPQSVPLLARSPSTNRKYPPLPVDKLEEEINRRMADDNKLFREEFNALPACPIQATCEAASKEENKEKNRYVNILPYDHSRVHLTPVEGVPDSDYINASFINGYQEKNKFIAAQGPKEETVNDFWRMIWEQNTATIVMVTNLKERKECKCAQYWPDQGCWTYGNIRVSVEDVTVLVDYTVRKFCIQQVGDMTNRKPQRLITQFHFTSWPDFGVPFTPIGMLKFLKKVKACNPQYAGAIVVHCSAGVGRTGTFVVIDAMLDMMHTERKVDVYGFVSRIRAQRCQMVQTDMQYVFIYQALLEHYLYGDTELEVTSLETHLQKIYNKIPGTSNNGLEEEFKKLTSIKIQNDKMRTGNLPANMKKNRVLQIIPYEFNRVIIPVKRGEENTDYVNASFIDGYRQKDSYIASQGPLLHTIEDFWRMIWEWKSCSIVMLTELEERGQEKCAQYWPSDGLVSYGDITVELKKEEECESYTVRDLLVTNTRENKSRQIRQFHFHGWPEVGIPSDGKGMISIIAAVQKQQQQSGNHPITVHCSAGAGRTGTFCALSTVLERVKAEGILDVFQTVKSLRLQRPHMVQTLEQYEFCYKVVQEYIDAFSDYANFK

SMILES | Ki [1] | Ki [2] | Ki [3] | Ki [4] | Ki [5] | Ki [6] | Ki [7] | Ki [8]
O=C(O)C(=O)Nc1sc2c(c1C(=O)O)CCCC2 | 41 µM | 19 µM | 100 µM |  |  |  |  | 
O=C(O)C(=O)Nc1sc2c(c1C(=O)O)CCNC2 | 59 µM | 560 µM | > 2000 µM | 1100 µM | 0.29 µM |  |  | 
CC1(C)CC(Nc2cccc(-c3sc(C(=O)O)c(OCC(=O)O)c3Br)c2)CC(C)(C)C1 |  |  |  |  |  | > 1000 µM |  | 
O=C(O)C(=O)Nc1ccsc1C(=O)O | 260 µM |  |  | 360 µM | 58 µM |  | > 2000 µM | 
O=C(O)C(=O)Nc1sc2c(c1C(=O)O)CCO[C@H]2COC1=NS(=O)(=O)c2ccccc21 | 489 µM | 21 µM | 289 µM | > 500 µM | 0.6 µM | 176 µM | > 500 µM | 1.1 µM

Further lines, with some results ahead:

Ki [1] | Ki [2] | Ki [3] | Ki [4] | Ki [5] | Ki [6] | Ki [7] | SMILES | Ki [8]
 | 33 µM | 510 µM | 130 µM |  |  |  | O=C(O)C(=O)Nc1ccccc1C(=O)O | 
 |  |  |  |  | > 500 µM |  | O=C(O)COc1c(C(=O)O)sc(-c2ccccc2)c1Br | 
49 µM | 17 µM | 80 µM | 33 µM | 14 µM |  |  | O=C(O)C(=O)Nc1ccc(I)cc1C(=O)O | 
20 µM | 3.6 µM | 28 µM | 33 µM | 8 µM | 450 µM | 180 µM | O=C(O)C(=O)Nc1ccc2cc[nH]c2c1C(=O)O | 
56 µM | 6 µM | 16 µM | 66 µM | 14 µM | 550 µM | 800 µM | O=C(O)C(=O)Nc1cc2[nH]ccc2cc1C(=O)O | 
210 µM |  |  | 740 µM | 62 µM |  |  | O=C(O)C(=O)Nc1sccc1C(=O)O | 
37 µM | 14 µM | 94 µM | 45 µM | 9.9 µM | 68 µM | 190 µM | O=C(O)C(=O)Nc1cc2ccccc2cc1C(O)O | 
> 1250 µM |  |  |  | 9.2 µM | 1100 µM |  | O=C(O)COc1c(C(=O)O)sc2c1sc1ccccc12 | 4.1 µM
